Assay results as given in patent publication US9913873B2, “Turmeric extract containing soft pastilles” (priority 2013, dated 2018).

Experiment: Preliminary finding on bioavailability of pure curcumin

Bioavailability: poor
SMILES: COc1cc(/C=C/C(=O)CC(=O)/C=C/c2ccc(O)c(OC)c2)ccc1O [Curcumin]
